Measured values as given in US11890288B2, “Sulfonamide or sulfinamide compound having effect of inducing BRD4 protein degradation and pharmaceutical use thereof” (MITSUBISHI TANABE PHARMA CORPORATION, priority 2020, dated 2024).
pIC50: −log10 of the molar value.

Legend:
[1] = system: human prostate cancer LNCaP cells; test: Cytotoxic action on LNCaP cells (WST-8, 96 hr); assay type: cell-based; details: 96 hr culture
Protocol: The cytotoxic action of the compound of the present invention against human cancer cells was evaluated in vitro. In this experiment, (+)-JQ1 (Nature volume 468, pages 1067-1073 (23 Dec. 2010)) known to have an inhibitory activity on the binding of BRD4 protein and a ligand therefor was used as a positive control drug. Respective cells were suspended in 10% FBS/RPMI1640, seeded in a 96 well plate and cultured at 5% CO2, 37° C. overnight. A test compound dissolved in DMSO was diluted with 10% FBS/RPMI1640 and added and the cells were further cultured for 96 hr. After culturing, the viable cell number was measured using a cell number measurement WST-8 kit (Kishida Chemical Co., Ltd.). As a control, the measurement was performed under conditions free of the test compound. The cytotoxic activity of the compound of the present invention against human prostate cancer LNCaP cells is shown in IC50 value in Table 1. The IC50 value is a concentration of the compound showing 50% cell survival rate when the cell survival rate thereof under compound untreated condition is 100%. It was calculated from the straight line connecting the cell survival rate at two points enclosing the 50% cell survival rate and the compound concentration. In addition, the cytotoxic activity against respective cancer cells of human acute myeloid leukemia MV-4-11 cell, human chronic myeloid leukemia K562 cell, human multiple myeloma MM.1S cell, human diffuse large B-cell lymphoma SU-DHL-6 cell, human T-cell leukemia Jurkat cells, human Burkitt lymphoma Raji cell, human castration-resistant prostate cancer PC-3 cell, human AR-V7 positive castration-resistant prostate cancer 22Rv1 cell, human ovarian cancer A2780 cell, human cisplatin-resistant ovarian cancer SK-OV-03 cell, human bladder cancer 5637 cell, human breast cancer ZR-75-1 cell, human triple negative breast cancer MDA-MB-231 cell, human uterus cervix cancer HeLa cell, human uterine sarcoma MES-SA cell, human stomach cancer SNU-16 cell, human non-small cell lung cancer NCI-H2126 cell, human EGFRT790M mutation-positive non-small cell lung cancer NCI-H1975 cell, human small cell lung cancer NCI-H82 cell, human large cell lung cancer NCI-H460 cell, human colon cancer HCT116 cell, human glioma U-87 MG cell, human pancreatic cancer BxPC-3 cell, human liver cancer HLF cell, human bile duct cancer HuCCT1 cell, human renal cell cancer 786-O cell, and human fibrosarcoma HT1080 cell is shown in IC50 value in Table 2.

BRD4 protein = BRD4 protein (Homo sapiens (Human), UniProt O60885); test: BRD4 protein degradation inducing action in LNCaP cells (immunofluorescence, 6 hr); assay type: cell-based; details: anti-BRD4 fluorescence intensity
Protocol: The degradation inducing action of the compound of the present invention on BRD4 proteins in cancer cells was evaluated in vitro using human prostate cancer LNCaP cells. LNCaP cells were suspended in 10% FBS/RPMI1640, seeded in a 96 well Cell carrier plate (Perkin Elmer) and cultured at 5% CO2, 37° C. overnight. A test compound dissolved in DMSO was diluted with 10% FBS/RPMI1640 and added and the cells were further cultured for 6 hr. After culturing, the cells were immobilized with 4% para-formaldehyde/PBS and further subjected to a permeation treatment with 0.25% Triton X-100/PBS. Thereafter, the cells were blocked with 10% BSA/PBS, Anti-BRD4 (Sigma-Aldrich) solution was added and the cells were incubated at 4° C. overnight. Furthermore, Goat anti-Rabbit IgG(H+L) Cross-Adsorbed Secondary Antibody, Alexa Fluor 546 (Thermo Fisher Scientific) solution, 0.5 μg/mL Hoechst 33342 (Sigma-Aldrich), and 14 μM Acti-Stain 555 Fluorescent Phalloidin (Cytoskeleton) were added. After incubation for 1 hr, BRD4 protein amount was measured by Operetta (Perkin Elmer) as fluorescence intensity (excitation: 560 nm, emission: 572 nm). The BRD4 protein degradation inducing activity of the compound of the present invention in LNCaP cells is shown in DC50 value in Table 3. The DC50 value is a concentration of the compound showing 50% fluorescence intensity when the fluorescence intensity thereof under compound untreated condition is 100%. It was calculated from the straight line connecting the fluorescence intensity at two points enclosing the 50% fluorescence intensity and the compound concentration.

SMILES	DC50 (BRD4 protein) [pM]	pIC50 [1]
CCc1ccc(NS(=O)(=O)c2ccc(CCNC(=O)c3ccc(-c4ccc(C5=N[C@@H](CC(=O)OC)c6nnc(C)n6-c6sc(C)c(C)c65)cc4)c(F)c3F)cc2)c2[nH]cc(C#N)c12 [Example Compound 125, methyl [(6S)-4-{4′-[(2-{4-[(3-cyano-4-ethyl-1H-indol-7-yl)sulfamoyl]phenyl}ethyl)carbamoyl]-2′,3′-difluoro[1,1′-biphenyl]-4-yl}-2,3,9-trimethyl-6H-thieno[3,2-f][1,2,4]triazolo[4,3-a][1,4]diazepin-6-yl]acetate]	170	9.43
Cc1sc2c(c1C)C(c1ccc(-c3cc(F)c(C(=O)NCc4ccc(S(=O)(=O)Nc5ccc(C)c6c(C#N)c[nH]c56)cc4)c(Cl)c3)cc1)=N[C@@H](C)c1nnc(C)n1-2 [Example 72, 3-chloro-N-({4-[(3-cyano-4-methyl-1H-indol-7-yl)sulfamoyl]phenyl}methyl)-5-fluoro-4′-[(6S)-2,3,6,9-tetramethyl-6H-thieno[3,2-f][1,2,4]triazolo[4,3-a][1,4]diazepin-4-yl][1,1′-biphenyl]-4-carboxamide]	65000	8.26
COC(=O)C[C@@H]1N=C(c2ccc(-c3cc(F)c(C(=O)N[C@H](C)c4ccc(S(=O)(=O)Nc5ccc(C)c6c(C#N)c[nH]c56)cc4)cc3F)cc2)c2c(sc(C)c2C)-n2c(C)nnc21 [Example 97, methyl [(6S)-4-(4′-{[(1R)-1-{4-[(3-cyano-4-methyl-1H-indol-7-yl)sulfamoyl]phenyl}ethyl]carbamoyl}-2′,5′-difluoro[1,1′-biphenyl]-4-yl)-2,3,9-trimethyl-6H-thieno[3,2-f][1,2,4]triazolo[4,3-a][1,4]diazepin-6-yl]acetate]	64	9.92
CCc1ccc(NS(=O)(=O)c2ccc(CNC(=O)c3ccc(-c4ccc(C5=N[C@@H](CC(=O)OC)c6nnc(C)n6-c6sc(C)c(C)c65)cc4)cc3Cl)cc2)c2[nH]cc(C#N)c12 [Example 113, methyl [(6S)-4-{3′-chloro-4′-[({4-[(3-cyano-4-ethyl-1H-indol-7-yl)sulfamoyl]phenyl}methyl)carbamoyl][1,1′-biphenyl]-4-yl}-2,3,9-trimethyl-6H-thieno[3,2-f][1,2,4]triazolo[4,3-a][1,4]diazepin-6-yl]acetate]	330	9.52
COC(=O)C[C@@H]1N=C(c2ccc(-c3ccc(C(=O)N[C@H](C)c4ccc(S(=O)(=O)Nc5ccc(C)c6c(C#N)c[nH]c56)cc4)c(F)c3)cc2)c2c(sc(C)c2C)-n2c(C)nnc21 [Example 69, methyl [(6S)-4-(4′-{[(1R)-1-{4-[(3-cyano-4-methyl-1H-indol-7-yl)sulfamoyl]phenyl}ethyl]carbamoyl}-3′-fluoro[1,1′-biphenyl]-4-yl)-2,3,9-trimethyl-6H-thieno[3,2-f][1,2,4]triazolo[4,3-a][1,4]diazepin-6-yl]acetate]	56	9.92
CCc1ccc(NS(=O)(=O)c2ccc(CCNC(=O)c3cnc(-c4ccc(C5=N[C@@H](CC(=O)OC)c6nnc(C)n6-c6sc(C)c(C)c65)cc4)cn3)cc2)c2[nH]cc(C#N)c12 [Example 107, methyl [(6S)-4-(4-{5-[(2-{4-[(3-cyano-4-ethyl-1H-indol-7-yl)sulfamoyl]phenyl}ethyl)carbamoyl]pyrazin-2-yl}phenyl)-2,3,9-trimethyl-6H-thieno[3,2-f][1,2,4]triazolo[4,3-a][1,4]diazepin-6-yl]acetate]	46	9.59
COC(=O)C[C@@H]1N=C(c2ccc(-c3ccc(C(=O)NCc4ccc(S(=O)(=O)Nc5ccc(C)c6c(C#N)c[nH]c56)cc4)s3)cc2)c2c(sc(C)c2C)-n2c(C)nnc21 [Example 59, methyl [(6S)-4-(4-{5-[({4-[(3-cyano-4-methyl-1H-indol-7-yl)sulfamoyl]phenyl}methyl)carbamoyl]thiophen-2-yl}phenyl)-2,3,9-trimethyl-6H-thieno[3,2-f][1,2,4]triazolo[4,3-a][1,4]diazepin-6-yl]acetate]	220	9.64
COC(=O)C[C@@H]1N=C(c2ccc(-c3ccc(C(=O)N[C@H](C)c4ccc(S(=O)(=O)Nc5ccc(C)c6c(C#N)c[nH]c56)cc4)cc3Cl)cc2)c2c(sc(C)c2C)-n2c(C)nnc21 [Example 84, methyl [(6S)-4-(2′-chloro-4′-{[(1R)-1-{4-[(3-cyano-4-methyl-1H-indol-7-yl)sulfamoyl]phenyl}ethyl]carbamoyl}[1,1′-biphenyl]-4-yl)-2,3,9-trimethyl-6H-thieno[3,2-f][1,2,4]triazolo[4,3-a][1,4]diazepin-6-yl]acetate]	230	9.24
Cc1sc2c(c1C)C(c1ccc(-c3ccc(C(=O)NCCc4ccc(S(=O)(=O)Nc5ccc(C)c6c(C#N)c[nH]c56)cc4)cc3)cc1)=N[C@@H](CC(=O)OC(C)(C)C)c1nnc(C)n1-2 [Example 64, t-butyl [(6S)-4-{4′-[(2-{4-[(3-cyano-4-methyl-1H-indol-7-yl)sulfamoyl]phenyl}ethyl)carbamoyl][1,1′-biphenyl]-4-yl}-2,3,9-trimethyl-6H-thieno[3,2-f][1,2,4]triazolo[4,3-a][1,4]diazepin-6-yl]acetate]	130	9.60

The next lines start with results.

DC50 (BRD4 protein) [pM]	SMILES	pIC50 [1]
130	COc1ccc2c(c1)C(c1ccc(-c3ccc(C(=O)NCc4ccc(S(=O)(=O)Nc5ccc(C)c6c(C#N)c[nH]c56)cc4)cc3)cc1)=N[C@@H](CC(=O)OC(C)(C)C)c1nnc(C)n1-2 [Example Compound 132, t-butyl [(4S)-6-{4′-[({4-[(3-cyano-4-methyl-1H-indol-7-yl)sulfamoyl]phenyl}methyl)carbamoyl][1,1′-biphenyl]-4-yl}-8-methoxy-1-methyl-4H-[1,2,4]triazolo[4,3-a][1,4]benzodiazepin-4-yl]acetate]	9.68
250	Cc1sc2c(c1C)C(c1ccc(-c3ccc(C(=O)NCc4ccc(S(=O)(=O)Nc5ccc(C)c6c(C#N)c[nH]c56)cc4)c(F)c3)cc1)=N[C@@H](CC(=O)OC(C)(C)C)c1nnc(C)n1-2 [Example Compound 139, t-butyl [(6S)-4-{4′-[({4-[(3-cyano-4-methyl-1H-indol-7-yl)sulfamoyl]phenyl}methyl)carbamoyl]-3′-fluoro[1,1′-biphenyl]-4-yl}-2,3,9-trimethyl-6H-thieno[3,2-f][1,2,4]triazolo[4,3-a][1,4]diazepin-6-yl]acetate]	9.35
35	Cc1sc2c(c1C)C(c1ccc(-c3ccc(C(=O)NCc4ccc(S(=O)(=O)Nc5ccc(C)c6c(C#N)c[nH]c56)cc4)cc3)cc1)=N[C@@H](CC(=O)OC(C)C)c1nnc(C)n1-2 [Example Compound 131, isopropyl [(6S)-4-{4′-[({4-[(3-cyano-4-methyl-1H-indol-7-yl)sulfamoyl]phenyl}methyl)carbamoyl][1,1′-biphenyl]-4-yl}-2,3,9-trimethyl-6H-thieno[3,2-f][1,2,4]triazolo[4,3-a][1,4]diazepin-6-yl]acetate]	10.19
260	COC(=O)C[C@@H]1N=C(c2ccc(-c3cnc(C(=O)NCc4ccc(S(=O)(=O)Nc5ccc(C)c6c(C#N)c[nH]c56)cc4)nc3)cc2)c2c(sc(C)c2C)-n2c(C)nnc21 [Example Compound 146, methyl [(6S)-4-(4-{2-[({4-[(3-cyano-4-methyl-1H-indol-7-yl)sulfamoyl]phenyl}methyl)carbamoyl]pyrimidin-5-yl}phenyl)-2,3,9-trimethyl-6H-thieno[3,2-f][1,2,4]triazolo[4,3-a][1,4]diazepin-6-yl]acetate]	8.89
